Laboratory results as given in patent US7014844B2, “Lightening compositions and methods of use” (Avon Products, Inc., priority 2001, dated 2006).

Experiments:
[1] = tested on: Reconstituted Human Epidermis (keratinocytes and Type IV melanocytes); experiment: Reconstructed Pigmented Epidermal Tissue Assay; format: cell-based; details: 0.1 wt %; treated 14 days; absorbance at 490 nm
Experimental: A composition containing 0.1 wt % N, N, S (tris) carboxylmethyl cysteamine was tested in a Reconstructed Pigmented Epidermal Tissue Assay. Reconstituted Human Epidermis (tissue) consisting of keratinocytes and Type IV (Fitzpatrick scale) melanocytes (Skin Ethic, France) were grown in maintenance medium obtained from the tissue supplier. This model consists of melanocytes and keratinocytes and the pigmentation of the skin-equivalent is due to melanin. The tissue remained viable through the course of the experimental treatment and actively synthesized and transferred melanin. The skin equivalents were treated for 14 days with the active materials of the present invention and a measure of melanin was obtained by measuring absorbance of the tissue at 490 nm. All studies were conducted in 6-well tissue culture dishes (Falcon), at 37° C. and 5% CO2. All test articles were dissolved in medium. Tissues were fed 1 ml of medium with the active material or medium alone was used as the control. […] After 14 days the tissues were transferred to a 24-well tissue culture dish (Falcon), and pigmentation was assessed using a Packard microplate reader at 490 nm. […] A control baseline reading had been taken on day 2 after the models had equilibrated and used as a baseline tissue pigmentation value. The baseline reading was subtracted from the final readings to eliminate inherent absorbance by the tissue. […]

DOPAchrome tautomerase = target: T1, DOPAchrome tautomerase (Mus musculus, UniProt P29812); experiment: DOPAchrome tautomerase (DCT) assay; format: biochemical; details: 0.05 wt %; cell extract; phenylthiourea 1 mM; 475 nm
T1 construct: DCT was assayed spectrophotometrically by adding up to 0.1 ml cell extract; endogenous in cells
Experimental: DOPAchrome tautomerase (DCT) activity was assayed according to the method disclosed in Chakraborty et al., 1998, Effect of arbutin on melanogenic proteins in human melanocytes, Pigment Cell Res. 11: 206–212. Specifically, ice-cold DOPA (0.5 mg per ml of 0.1 M sodium phosphate buffer, pH 6.8) was mixed with Ag2O (30 mg Ag2O: 1 mg DOPA) for about 1 minute and filtered through a 0.22 μm Millipore filter. DCT was assayed spectrophotometrically by adding up to 0.1 ml cell extract to 0.5 ml of a solution of freshly prepared DOPAchrome (˜0.5 mg/ml). Reactions were carried out at room temperature in plastic cuvettes, and the disappearance of absorption at 475 nm was followed. Phenylthiourea (1 mM) was added to the reaction mixture, because the presence of tyrosinase in the cell extract can interfere with the assay. The percentage conversion of DOPAchrome was calculated per mg of protein extract and normalized against the control.

tyrosinase = target: T2, tyrosinase (Mus musculus, UniProt P11344); experiment: Tyrosinase assay; format: biochemical; details: 0.05 wt %; mouse melanoma cell extract; DOPA substrate; 475 nm
T2 construct: Tyrosinase was assayed spectrophotometrically by adding up to 0.1 ml cell extract; endogenous in cells
T2 sequence (P11344 19-533): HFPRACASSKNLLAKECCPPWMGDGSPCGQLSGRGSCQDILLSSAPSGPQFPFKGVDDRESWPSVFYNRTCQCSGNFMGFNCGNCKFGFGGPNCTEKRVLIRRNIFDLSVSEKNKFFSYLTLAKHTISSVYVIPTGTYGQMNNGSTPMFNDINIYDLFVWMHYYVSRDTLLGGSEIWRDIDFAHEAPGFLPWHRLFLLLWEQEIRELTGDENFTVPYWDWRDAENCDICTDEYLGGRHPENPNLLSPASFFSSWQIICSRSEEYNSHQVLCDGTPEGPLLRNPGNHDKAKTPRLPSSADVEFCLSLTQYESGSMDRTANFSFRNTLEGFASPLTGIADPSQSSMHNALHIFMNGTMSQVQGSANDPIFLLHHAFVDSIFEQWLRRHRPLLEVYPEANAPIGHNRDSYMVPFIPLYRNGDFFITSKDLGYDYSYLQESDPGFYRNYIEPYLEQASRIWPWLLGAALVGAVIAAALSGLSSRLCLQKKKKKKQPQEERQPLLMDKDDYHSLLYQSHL
Experimental: A tyrosinase assay was performed according to the method outlined in Chakraborty et al., 1989, Melanogenic regulatory factors in coated vesicles from melanoma cells, J. Invest. Dermatol. 93: 616–620. Specifically, mouse melanoma cells were dissolved with the addition of 0.1 M sodium phosphate buffer, pH 6.8, containing Triton X-100 (1% vol/vol), at a ratio of 1-5×10^6 cells/ml. After 10 minutes on ice, the extracts were centrifuged at 4° C. (10,000 g, for 10 minutes) and the supernatant fractions were assayed for tyrosinase. Tyrosinase was assayed spectrophotometrically by adding up to 0.1 ml cell extract to 0.2 ml of a solution of freshly prepared DOPA (˜0.5 mg/ml), in a total volume of 0.5 ml of 0.1 M sodium phosphate buffer, pH 6.8. Reactions were carried out at 37° C. in plastic cuvettes, and the appearance of absorption at 475 nm was followed.

DHICA polymerase = DHICA polymerase assay; format: biochemical; details: 0.05 wt %; wheat germ agglutinin eluate; 4 hours; 400 nm
Experimental: A DHICA polymerase assay was performed according to the method disclosed in Chakraborty et al., 1996, Polymerization of 5, 6-dihydroxyindole-2-Carboxylic acid to melanin by the pmell7/silver locus protein, Eur. J. Biochem. 236: 180–188. Specifically, the cell extract (0.5 ml, 150–200 μg protein) was passed through a wheat germ agglutinin column (1 ml bed volume) equilibrated with lysis buffer. The bound material was eluted with 0.5 ml 1M N-acetyl glucosamine, which contains crude DHICA polymerization factor and other melanogenic proteins. A reaction mixture of 0.5 ml containing either the enzyme preparation to be measured (20 μg protein from wheat germ agglutinin eluates) or the appropriate buffer blank, DHICA (0.5 mM), and 100 mM sodium phosphate buffer, pH 7.0. Phenylthiourea was also included to inhibit endogenous tyrosinase activity in the preparation.
Spectrophotomeric reading of the absorbance of the reaction mixture was taken at T=0 and T=4 hours time points at 400 nm. […] An increase in absorbance over that seen in blank tubes was defined as specific DHICA polymerization factor activity.

T1 sequence (P29812 24-517): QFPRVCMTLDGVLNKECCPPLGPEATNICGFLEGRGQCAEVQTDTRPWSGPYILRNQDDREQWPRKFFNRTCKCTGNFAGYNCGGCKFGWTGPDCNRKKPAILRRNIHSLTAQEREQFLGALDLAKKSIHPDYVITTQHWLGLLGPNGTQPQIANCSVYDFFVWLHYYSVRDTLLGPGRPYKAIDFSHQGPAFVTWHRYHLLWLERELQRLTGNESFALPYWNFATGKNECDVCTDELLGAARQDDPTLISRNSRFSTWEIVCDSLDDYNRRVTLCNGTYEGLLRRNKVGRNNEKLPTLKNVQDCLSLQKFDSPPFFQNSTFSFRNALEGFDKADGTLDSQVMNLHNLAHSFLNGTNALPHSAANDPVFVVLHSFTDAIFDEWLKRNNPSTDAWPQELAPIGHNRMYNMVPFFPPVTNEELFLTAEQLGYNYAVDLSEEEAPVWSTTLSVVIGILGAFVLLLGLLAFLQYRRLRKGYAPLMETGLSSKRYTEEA

- average decrease in DOPAchrome conversion as compared to the control (DOPAchrome tautomerase): 65%
- average decrease in tyrosinase conversion as compared to the control (tyrosinase): 36%
- average decrease in DHICA Polymerase conversion compared to the control (DHICA polymerase): 58%
Structure (SMILES): O=C(O)CSCCN(CC(=O)O)CC(=O)O [N, N, S (tris) carboxylmethyl cysteamine]
- reduction of reconstructed epidermal tissue pigmentation in comparison to control tissue [1]: about 40%
